Assay type in all cases: physicochemical
Data set [1] can be described thus: Fluorescence maximum of the dye. The text has this: (§1) Examples of the compounds according to the invention are listed in Tables 2-6, where the structures as well as the absorption and fluorescence maxima are indicated. The spectra of selected compounds are shown FIGS. 5-18.
Data set [2] is described as follows: Lactone or pseudobase formation in aqueous weakly alkaline solution. The note with it: aqueous weakly alkaline solutions; reversible. The text has this:
Normally such lactones are adequately stabilized only in aprotic solvents such as acetone or chloroform. In protic solvents the carboxyl group is deprotonated and a slightly more short-wave absorbing and fluorescent zwitterion is formed. In the exemplary compounds, however, colorless compounds are formed due to the strong electron attraction of the indicated substituents, due to internal ester formation and the associated interruption of the conjugated system. If the carboxyl group is not free but is present as an ester or tertiary amide, so-called pseudobases are formed, through nucleophilic attack (hydroxide ions etc.) at the central carbon atom, which is stronger positivized by the electron-attracting substituents, which pseudobases are likewise colorless due to the interruption of the conjugated system. Both reactions are reversible; by changing the pH value, the dielectric constant (“polarity”) and/or the capability of hydrogen bridge bonding (“proticity”), the dye can be restored. Therefore such compounds can in principle be used as probes for the properties of their direct environment: Depending on the milieu, the molecules are present in colorless or colored form. Associated therewith is also a sort of fluorogenicity, because the longwave fluorescence appears only in the dye form.

Data set [3] is described as follows: Absorption maximum of the dye.
From the text: as §1

The next data set concerns the target T1, streptavidin (Streptomyces avidinii, UniProt P22629).
T1 construct: purchased IBA
The data set can be described thus: Fluorescence quantum yield of the dye after coupling to streptavidin, relative to the uncoupled dye. The note with it: streptavidin conjugate. The text has this: The average number of dye molecules per biomolecule is expressed by the “degree of labeling” (DOL). […] Since the dye also absorbs in UV, the (total) absorption measured there must still be corrected with the absorption of the dye at this wavelength in order to obtain the actual biomolecule absorption. For this purpose, with commercial dyes, so-called CF values (correction factor values) are given, which describe the ratio of absorptions of the dye at the longwave maximum and at 260 nm or 280 nm.
From the thus obtained (individual) absorptions of dye and biomolecule in the conjugate, taking into consideration the two extinction coefficients, the quotient is formed, which directly indicates the molecular concentration ratio and thus the mean number of dye molecules per biomolecule (“degree of labeling,” DOL).
The compounds listed in Table 1 belong to the class of rhodamines with the same chromophore system. In an aqueous solution at room temperature they all have a comparably high fluorescence quantum yield of about 90%. […] Thus with established marking procedures, a much better detection reliability is achieved.
2 mg of streptavidin (IBA, content approx. 75%) are dissolved under cautious swirling in a glass vial with 1 ml of PBS buffer (pH 7.4) and 50 μl of a 0.2 M sodium hydrogen carbonate solution, which is set to a pH of 9 with sodium hydroxide. The clear solution has a pH-value of 8.3.
40.5 μl of a solution of 170 μg of compound 7 in 50 μl of dry DMSO are added; this corresponds to a dye-streptavidin ratio of 4:1.
The reaction solution is kept for two hours at room temperature and then kept overnight in the refrigerator at 4° C.
Purification is performed in the usual manner over superfine Sephadex G25 (column length 40 cm, diameter 2.5 cm) with PBS buffer as the eluent. The first colored zone contains the streptavidin conjugate.
The DOL can be calculated from the absorption spectrum of the conjugate fraction by the known procedure.

Data set [4] can be described thus: Fluorescence quencher property (dye itself not fluorescent). From the text: A particular subgroup of the compounds according to the invention is fluorescence quenchers. These dyes are not fluorescent themselves, but can act as acceptors for the emission of fluorescent compounds. A widespread area of use of such quenchers is for instance the measurement of the geometry (distances, size, and arrangement of molecular groups) or the reactivity (enzyme activity, reaction speeds, etc.) using Förster resonance energy transfer (FRET). The fluorescence of the donor can only appear when the distance between donor and acceptor exceeds a critical value. Below this distance, the fluorescence of the donor is quenched by the acceptor (=quencher) which is not fluorescent by itself. An overview of the bioanalytical applications of the FRET technology is provided for example by A. Roda, M. Guardigli, E. Micheline, M. Mirasoli, Nanobioanalytical luminescence: Förster-type energy transfer methods, Anal. Bioanal. Chem. 393, 2009, 109-123.
Examples of quenchers according to the invention are compounds 14, 15, 16 and 17. These rhodamines represent a further development of the dyes designated as “violamines” because of their magenta-colored solutions, see for example H. E. Fierz-David, Künstliche Organische Farbstoffe [Artificial Organic Dyes], Springer-Verlag, Berlin, 1926, p. 276ff. However, also the structure of other dye classes may be modified in this way. Examples according to the invention include compounds 49, 50 and 51 from the class of carbopyronines.

Structures are written as SMILES. Marks after values point to notes of the source that are not given here.

T1 sequence (P22629 38-163 limits assumed): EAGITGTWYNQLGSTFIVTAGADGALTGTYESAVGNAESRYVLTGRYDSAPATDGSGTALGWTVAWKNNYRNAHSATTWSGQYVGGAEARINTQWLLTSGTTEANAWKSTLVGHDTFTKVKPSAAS

With `CN(CCCC(=O)O)C(=O)c1ccccc1-c1c2cc(S(=O)(=O)O)/c(=N/Cc3ccc(S(=O)(=O)O)cc3S(=O)(=O)O)cc-2oc2cc(NCc3ccc(S(=O)(=O)O)cc3S(=O)(=O)O)c(S(=O)(=O)O)cc12` [Compound 6], in data set [1] (solvent PBS pH 7.4), the λfl was 559^b nm. For the same compound, the “formation of colorless lactone or pseudobase” value (from here on “formation”) in data set [2] was “easily form a lactone or pseudobase”. Moreover, the λabs in data set [3] (solvent water/acetonitrile 1:1) was 534^c nm. For the same compound, the “Fluorescence quantum yield of the dye following coupling to streptavidin in comparison with the uncoupled dye” value was 42% on streptavidin (DOL 2.5, PBS-buffer 25° C.) and 37% on streptavidin (DOL 5.5, PBS-buffer 25° C.).

For the compound `O=C(O)C1CCCN1C(=O)c1ccccc1-c1c2cc(S(=O)(=O)O)/c(=N/Cc3ccc(S(=O)(=O)O)cc3S(=O)(=O)O)cc-2oc2cc(NCc3ccc(S(=O)(=O)O)cc3S(=O)(=O)O)c(S(=O)(=O)O)cc12` (stereo not shown) [Compound 10], the λfl in data set [1] (solvent PBS pH 7.4) is recorded as 556^b nm. Besides, the “formation” value in data set [2] was “easily form a lactone or pseudobase”. Also, the λabs in data set [3] (solvent water/acetonitrile 1:1) was 534^c nm.

Consider `O=C(O)C1CCN(C(=O)c2ccccc2-c2c3cc(S(=O)(=O)O)/c(=N/Cc4ccc(S(=O)(=O)O)cc4S(=O)(=O)O)cc-3oc3cc(NCc4ccc(S(=O)(=O)O)cc4S(=O)(=O)O)c(S(=O)(=O)O)cc23)CC1` [Compound 11], for which the λfl in data set [1] (solvent PBS pH 7.4) is recorded as 550^b nm. Besides, the “formation” value in data set [2] was “easily form a lactone or pseudobase”. The λabs in data set [3] (solvent water/acetonitrile 1:1) is 529^c nm.

For the compound `O=C(O)c1ccccc1-c1c2cc/c(=N/c3ccc(S(=O)(=O)O)cc3)cc-2oc2cc(Nc3ccc(S(=O)(=O)O)cc3)ccc12` [Compound 14], the λabs in data set [3] (solvent PBS pH 7.4) is on record as 560^b nm. For the same compound, the “fluorescence quencher (not fluorescent itself, acceptor for emission of fluorescent compounds)” value in data set [4] is “quenchers”.

On to `O=C(O)c1ccccc1-c1c2cc(S(=O)(=O)O)/c(=N/c3ccc(S(=O)(=O)O)cc3)cc-2oc2cc(Nc3ccc(S(=O)(=O)O)cc3)c(S(=O)(=O)O)cc12` [Compound 15], for which the λabs in data set [3] (solvent water/acetonitrile 1:1) is 558^c nm. Moreover, the “fluorescence quencher (not fluorescent itself, acceptor for emission of fluorescent compounds)” value in data set [4] is recorded as “quenchers”.

With `CN(CCCC(=O)O)C(=O)c1ccccc1-c1c2cc(S(=O)(=O)O)/c(=N/c3ccc(S(=O)(=O)O)cc3)cc-2oc2cc(Nc3ccc(S(=O)(=O)O)cc3)c(S(=O)(=O)O)cc12` [Compound 16], the λabs in data set [3] (solvent water/acetonitrile 1:1) is on record as 566^c nm. In data set [4], the “fluorescence quencher (not fluorescent itself, acceptor for emission of fluorescent compounds)” value is given as “quenchers”.

In the case of `CN(CCCC(=O)O)C(=O)c1ccccc1-c1c2cc/c(=N\c3ccc(S(=O)(=O)O)cc3)c(S(=O)(=O)O)c-2oc2c(S(=O)(=O)O)c(Nc3ccc(S(=O)(=O)O)cc3)ccc12` [Compound 17], in data set [3] (solvent water/acetonitrile 1:1), the λabs is reported as 555^c nm. For the same compound, the “fluorescence quencher (not fluorescent itself, acceptor for emission of fluorescent compounds)” value in data set [4] is reported as “quenchers”.

For the compound `CN(CCCC(=O)O)C(=O)c1ccccc1-c1c2cc(S(=O)(=O)O)/c(=N/CCc3ccc(S(=O)(=O)O)cc3)cc-2oc2cc(N)c(S(=O)(=O)O)cc12` [Compound 20], in data set [1] (solvent PBS pH 7.4), the λfl is on record as 550^b nm. Further, in data set [2], the “formation” value was “easily form a lactone or pseudobase”. Further, the λabs in data set [3] (solvent water/acetonitrile 1:1) was 528^c nm.

Consider `CN(CCCC(=O)O)C(=O)c1ccccc1-c1c2cc/c(=N/CCc3ccc(S(=O)(=O)O)cc3)c(S(=O)(=O)O)c-2oc2c(S(=O)(=O)O)c(NCCc3ccc(S(=O)(=O)O)cc3)ccc12` [Compound 26], for which, in data set [1] (solvent PBS pH 7.4), the λfl was 558^b nm. In addition, in data set [3] (solvent water/acetonitrile 1:1), the λabs is listed as 538^c nm. Moreover, the “Fluorescence quantum yield of the dye following coupling to streptavidin in comparison with the uncoupled dye” value at streptavidin (DOL 7.0, PBS-buffer 25° C.) amounted to 8%.

As to `CC1(C)c2cc(Nc3ccc(S(=O)(=O)O)cc3)ccc2C(c2c(F)c(F)c(SCC(=O)O)c(F)c2F)=c2cc3c(cc21)=[N+](Cc1ccc(S(=O)(=O)O)cc1S(=O)(=O)O)CCC3` [Compound 49], the λabs in data set [3] (solvent PBS pH 7.4) is on record as 648^b nm. Moreover, the “fluorescence quencher (not fluorescent itself, acceptor for emission of fluorescent compounds)” value in data set [4] was “quenchers”.

`CC1=CC(C)(C)[N+](Cc2ccc(S(=O)(=O)O)cc2S(=O)(=O)O)=c2cc3c(cc21)=C(c1c(F)c(F)c(SCC(=O)O)c(F)c1F)c1ccc(Nc2ccc(S(=O)(=O)O)cc2)cc1C3(C)C` [Compound 50]: in data set [3] (solvent PBS pH 7.4), the λabs was 669^b nm. Further, the “fluorescence quencher (not fluorescent itself, acceptor for emission of fluorescent compounds)” value in data set [4] is on record as “quenchers”.

As to `CC1(C)c2cc(Nc3ccc(S(=O)(=O)O)cc3)ccc2C(c2c(F)c(F)c(SCC(=O)O)c(F)c2F)=c2cc3c(cc21)=[N+](Cc1ccc(S(=O)(=O)O)cc1S(=O)(=O)O)C(C)(C)CC3CS(=O)(=O)O` (stereo not shown) [Compound 51], the λabs in data set [3] (solvent PBS pH 7.4) was 650^b nm. Further, the “fluorescence quencher (not fluorescent itself, acceptor for emission of fluorescent compounds)” value in data set [4] was “quenchers”.

Turning to `CC1(C)c2cc3c(cc2N=c2cc4c(cc21)=[N+](CCCC(=O)O)C(C)(C)C=C4CS(=O)(=O)O)C(CS(=O)(=O)O)=CC(C)(C)N3Cc1ccc(S(=O)(=O)O)cc1S(=O)(=O)O` [Compound 104], the λfl in data set [1] (solvent PBS pH 7.4) is reported as 778^b nm. The λabs in data set [3] (solvent PBS pH 7.4) is 758^b nm.

Regarding `Cc1cc(=O)[nH]c2cc(NCS(=O)(=O)O)ccc12` [Compound 105], the λfl in data set [1] (solvent PBS pH 7.4) is on record as 413 nm; in data set [1] (solvent ethanol) it was 406 nm. Further, the results for the λabs in data set [3] (solvent PBS pH 7.4) and in data set [3] (solvent ethanol) were 349 nm and 355 nm, respectively.

Turning to `Cc1cc(=O)n(CC(=O)O)c2cc(NCS(=O)(=O)O)ccc12` [Compound 106], in data set [1] (solvent PBS pH 7.4), the λfl is listed as 410^b nm. Also, the λabs in data set [3] (solvent PBS pH 7.4) was 350^b nm.

As to `Cc1cc(=O)n(CC(=O)O)c2cc(NCc3ccc(S(=O)(=O)O)cc3S(=O)(=O)O)ccc12` [Compound 107], the λfl in data set [1] (solvent PBS pH 7.4) is 413^b nm. Also, in data set [3] (solvent PBS pH 7.4), the λabs is 351^b nm.

As to `Cc1cc(=O)n(CC(=O)O)c2cc(NCS(=O)(=O)O)c(S(=O)(=O)O)cc12` [Compound 108], the λfl in data set [1] (solvent PBS pH 7.4) is on record as 411^b nm. The λabs in data set [3] (solvent PBS pH 7.4) was 348^b nm.

As for `Cc1cc(=O)n(CC(=O)O)c2cc(NCc3ccc(S(=O)(=O)O)cc3S(=O)(=O)O)c(S(=O)(=O)O)cc12` [Compound 109], the λfl in data set [1] (solvent PBS pH 7.4) was 418^b nm. Also, in data set [3] (solvent PBS pH 7.4), the λabs is given as 349^b nm.

Turning to `Cc1c(CC(=O)O)c(=O)oc2cc(NCS(=O)(=O)O)ccc12` [Compound 110], the λfl in data set [1] (solvent PBS pH 7.4) is listed as 353^b nm. The λabs in data set [3] (solvent PBS pH 7.4) is recorded as 354^b nm.

Turning to `Cc1c(CC(=O)O)c(=O)oc2cc(NCc3ccc(S(=O)(=O)O)cc3S(=O)(=O)O)c(S(=O)(=O)O)cc12` [Compound 111], in data set [1] (solvent PBS pH 7.4), the λfl is 449^b nm. The λabs in data set [3] (solvent PBS pH 7.4) is listed as 348^b nm.

For the compound `Cc1c(CC(=O)O)c(=O)oc2cc(Nc3nc(Cl)nc(NCCS(=O)(=O)O)n3)ccc12` [Compound 112], in data set [1] (solvent PBS pH 7.4), the λfl was 416^b nm. For the same compound, the λabs in data set [3] (solvent PBS pH 7.4) is reported as 338^b nm.

Turning to `Cc1cc(=O)n(CC(=O)O)c2cc(Nc3nc(Cl)nc(NCCS(=O)(=O)O)n3)ccc12` [Compound 114], in data set [1] (solvent PBS pH 7.4), the λfl is listed as 385^b nm. Further, the λabs in data set [3] (solvent PBS pH 7.4) was 338^b nm.

As to `Cc1cc(=O)n(CC(=O)O)c2cc(Nc3nc(NCCS(=O)(=O)O)nc(NCCS(=O)(=O)O)n3)ccc12` [Compound 115], the λfl in data set [1] (solvent PBS pH 7.4) is recorded as 383^b nm. Further, the λabs in data set [3] (solvent PBS pH 7.4) was 335^b nm.

Values taken from patent US11180657B2, “Polysulfonated fluorescence dyes” (ATTO-TEC GmbH, priority 2017, dated 2021).
